According to PMC4774911, “Biochemical Screening of Five Protein Kinases from Plasmodium falciparum against 14,000 Cell-Active Compounds” (PLoS ONE, 2016):
Like-named read-outs stand apart in the source and are kept apart here.

Columns and labels:
[1] = molecular target: T1, Plasmodium falciparum calcium-dependent protein kinase 4 (CDPK4) (Plasmodium falciparum, UniProt Q8IBS5); assay: CDPK4 Kinase-Glo ATP-consumption screen and dose-response; type: biochemical; conditions: hits below 1 uM
T1 construct: 6-Histidine (N); made in house
T1 sequence (Q8IBS5 1-528): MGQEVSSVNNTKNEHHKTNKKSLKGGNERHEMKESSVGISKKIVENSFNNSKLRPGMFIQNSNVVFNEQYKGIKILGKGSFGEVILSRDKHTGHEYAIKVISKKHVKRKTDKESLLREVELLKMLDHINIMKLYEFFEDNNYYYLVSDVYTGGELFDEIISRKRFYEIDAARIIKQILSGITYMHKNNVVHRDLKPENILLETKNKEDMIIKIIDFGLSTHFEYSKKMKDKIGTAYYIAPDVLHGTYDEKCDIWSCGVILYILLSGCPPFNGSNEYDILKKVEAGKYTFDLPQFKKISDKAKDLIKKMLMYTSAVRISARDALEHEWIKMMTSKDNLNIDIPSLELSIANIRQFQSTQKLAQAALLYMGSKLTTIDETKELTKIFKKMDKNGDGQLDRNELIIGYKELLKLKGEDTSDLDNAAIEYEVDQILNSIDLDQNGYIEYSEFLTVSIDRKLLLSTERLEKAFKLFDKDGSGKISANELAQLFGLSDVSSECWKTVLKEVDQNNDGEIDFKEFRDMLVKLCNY
Outline: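 ATP consumption by recombinant P. falciparum CDPK4 or CDPK1 measured as residual ATP by Kinase-Glo luminescence, with 40 μM Syntide-2 substrate and 90 min incubation stopped with 5 mM EGTA. Single-point screen at 1 μM final, followed by dose-response; no-substrate wells as negative control.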

BMX = BMX (Homo sapiens, UniProt P51813); assay: biochemical
PIK3C3 = PIK3C3 (Homo sapiens, UniProt Q8NEB9); assay: biochemical
PRKACA = PRKACA (Homo sapiens, UniProt P17612); assay: biochemical
STK38L = STK38L (Homo sapiens, UniProt Q9Y2H1); assay: biochemical
MAPKAPK3 = MAPKAPK3 (Homo sapiens, UniProt Q16644); assay: biochemical
KIT = KIT (Homo sapiens, UniProt P10721); assay: biochemical
ABL1 = ABL1 (Homo sapiens, UniProt P00519)
TNK2 = TNK2 (Homo sapiens, UniProt Q07912); assay: Kinobead competition assay in K562 extract: TNK2
Method: (§1) Kinobeads were prepared as described [25, 26]. […] Briefly, Kinobeads were washed and equilibrated in lysis buffer (50 mM Tris-Cl, pH 7.4, 0.4% Igepal-CA630, 1.5 mM MgCl2, 5% Glycerol, 150 mM NaCl, 25 mM NaF, 1 mM Na3VO4, 1 mM DTT, and 1 complete EDTA-free protease inhibitor tablet (Roche) per 25 ml). […] Digestion, labeling with TMT isobaric mass tags, peptide fractionation, and mass spectrometric analyses were performed essentially as described [27]. Criteria for protein quantification were: a minimum of 2 sequence assignments matching to unique peptides was required (FDR for quantified proteins <<0.1%), Mascot ion score > 15, signal to background ratio of the precursor ion > 4, signal to interference > 0.5 [28]. Reporter ion intensities were multiplied by ion accumulation time, yielding an area value proportional to the number of reporter ions present in the mass analyzer. Peptide fold changes were corrected for isotope purity as described and adjusted for interference caused by co-eluting nearly isobaric peaks as estimated by the signal-to-interference measure [29]. Protein quantification was achieved using a sum-based bootstrap algorithm [30]. Apparent dissociation constants were determined by taking into account the protein depletion by the beads as described [27].
(§2) Kinobeads were incubated with K562 cell extract either in the presence of vehicle (DMSO) or TCAMS compound, respectively (20 μM-0.03 μM). Protein kinases captured by the beads (140–150 kinases per experiment) were quantified following tryptic digestion, isobaric peptide tagging, and LC-MS/MS analysis. Kinases were identified as potential targets by virtue of their reduced capture in the presence of excess TCAMS compounds. Apparent dissociation constants (Kd’s) were calculated from the extent to which capture of each kinase was reduced at each compound concentration.

AAK1 = AAK1 (Homo sapiens, UniProt Q2M2I8); assay: Kinobead competition assay in K562 extract: AAK1
Method: as §1, §2

3D7 PFLDH [2] = tested on: 3D7 PFLDH; set-up: method as in F.J. Gamo et al., Nature 2010; conditions: downloaded from ChEMBL ref F.J. Gamo et al., Nature 2010; cited from earlier work
DD2 = tested on: DD2; set-up: method as in F.J. Gamo et al., Nature 2010; conditions: P. falciparum Dd2; downloaded from ChEMBL ref F.J. Gamo et al., Nature 2010; cited from earlier work
LRRK2 = LRRK2 (Homo sapiens, UniProt Q5S007); assay: biochemical
HIPK1 = HIPK1 (Homo sapiens, UniProt Q86Z02); assay: biochemical
HIPK2 = HIPK2 (Homo sapiens, UniProt Q9H2X6); assay: biochemical
ILK = ILK (Homo sapiens, UniProt Q13418); assay: biochemical
PLK1 = PLK1 (Homo sapiens, UniProt P53350); assay: biochemical
3D7 PFLDH [3] = tested on: 3D7 PFLDH; set-up: method as in ChEMBL; conditions: ref ChEMBL; cited from earlier work
P. falciparum DD2 = tested on: P. falciparum DD2; set-up: method as in ChEMBL; conditions: ref ChEMBL; cited from earlier work
RPS6KB1 = RPS6KB1 (Homo sapiens, UniProt P23443); assay: biochemical
TAOK1 = TAOK1 (Homo sapiens, UniProt Q7L7X3); assay: biochemical
PRKCI = PRKCI (Homo sapiens, UniProt P41743); assay: biochemical
ARAF = ARAF (Homo sapiens, UniProt P10398); assay: biochemical
[4] = TNK2, K-562 extract, conc. series 20.0-0.0uM, channel assignment not given
[5] = AAK1, K-562 extract, conc. series 20.0-0.0uM, channel assignment not given

AAK1, sequence (Q2M2I8 whole entry): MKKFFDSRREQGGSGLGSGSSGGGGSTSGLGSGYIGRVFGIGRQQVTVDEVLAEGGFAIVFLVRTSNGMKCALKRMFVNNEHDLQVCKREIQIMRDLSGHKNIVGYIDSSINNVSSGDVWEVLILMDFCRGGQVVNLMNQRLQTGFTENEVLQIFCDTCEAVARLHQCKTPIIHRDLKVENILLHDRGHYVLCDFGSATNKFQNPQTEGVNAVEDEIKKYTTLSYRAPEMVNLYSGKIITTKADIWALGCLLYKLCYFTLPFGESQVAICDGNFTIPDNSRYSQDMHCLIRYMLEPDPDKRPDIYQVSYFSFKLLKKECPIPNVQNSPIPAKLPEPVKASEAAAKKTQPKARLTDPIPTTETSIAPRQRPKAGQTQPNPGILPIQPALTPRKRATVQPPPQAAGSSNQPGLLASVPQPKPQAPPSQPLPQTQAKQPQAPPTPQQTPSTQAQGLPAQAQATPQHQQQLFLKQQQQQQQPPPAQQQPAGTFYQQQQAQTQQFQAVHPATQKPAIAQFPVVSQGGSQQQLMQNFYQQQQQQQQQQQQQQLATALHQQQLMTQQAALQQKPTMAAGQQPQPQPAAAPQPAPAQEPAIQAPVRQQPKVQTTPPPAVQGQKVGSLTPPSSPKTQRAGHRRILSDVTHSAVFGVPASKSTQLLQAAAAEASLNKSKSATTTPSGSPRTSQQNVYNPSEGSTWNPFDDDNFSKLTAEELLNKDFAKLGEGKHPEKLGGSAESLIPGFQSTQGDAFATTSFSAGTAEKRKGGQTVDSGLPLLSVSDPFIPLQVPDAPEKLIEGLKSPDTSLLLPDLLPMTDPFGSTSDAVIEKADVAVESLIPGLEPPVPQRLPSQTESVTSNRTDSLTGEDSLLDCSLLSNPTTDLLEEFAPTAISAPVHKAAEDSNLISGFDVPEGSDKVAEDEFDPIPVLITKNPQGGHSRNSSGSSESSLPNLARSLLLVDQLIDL
TNK2, sequence (Q07912 whole entry): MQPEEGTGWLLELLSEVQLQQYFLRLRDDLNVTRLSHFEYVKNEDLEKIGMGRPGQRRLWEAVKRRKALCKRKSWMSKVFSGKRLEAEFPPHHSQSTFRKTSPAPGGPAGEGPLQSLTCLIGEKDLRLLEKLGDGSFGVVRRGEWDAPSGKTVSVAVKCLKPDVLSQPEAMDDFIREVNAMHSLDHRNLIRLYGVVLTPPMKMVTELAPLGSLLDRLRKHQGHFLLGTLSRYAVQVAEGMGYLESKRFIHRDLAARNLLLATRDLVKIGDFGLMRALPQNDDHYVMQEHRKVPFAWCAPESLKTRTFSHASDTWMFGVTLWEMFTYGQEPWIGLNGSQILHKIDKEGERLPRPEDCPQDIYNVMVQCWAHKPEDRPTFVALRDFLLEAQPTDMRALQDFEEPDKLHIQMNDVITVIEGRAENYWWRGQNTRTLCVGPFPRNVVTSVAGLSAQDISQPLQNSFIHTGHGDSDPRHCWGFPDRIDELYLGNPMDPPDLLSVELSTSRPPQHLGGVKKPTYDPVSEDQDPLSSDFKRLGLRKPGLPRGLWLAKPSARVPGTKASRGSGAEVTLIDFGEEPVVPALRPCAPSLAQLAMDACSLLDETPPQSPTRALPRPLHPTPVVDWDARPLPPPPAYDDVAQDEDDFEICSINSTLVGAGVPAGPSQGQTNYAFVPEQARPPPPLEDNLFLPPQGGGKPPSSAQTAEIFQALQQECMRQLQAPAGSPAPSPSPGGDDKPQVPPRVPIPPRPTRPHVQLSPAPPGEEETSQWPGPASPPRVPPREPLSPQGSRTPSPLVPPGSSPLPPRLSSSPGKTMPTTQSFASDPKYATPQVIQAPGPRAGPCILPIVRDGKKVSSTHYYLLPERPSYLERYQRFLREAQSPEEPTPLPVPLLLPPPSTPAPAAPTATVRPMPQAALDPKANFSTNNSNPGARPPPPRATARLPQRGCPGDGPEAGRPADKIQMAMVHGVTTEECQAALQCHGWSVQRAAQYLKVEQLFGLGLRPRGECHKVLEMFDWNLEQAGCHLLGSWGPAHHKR
LRRK2, sequence (Q5S007 whole entry): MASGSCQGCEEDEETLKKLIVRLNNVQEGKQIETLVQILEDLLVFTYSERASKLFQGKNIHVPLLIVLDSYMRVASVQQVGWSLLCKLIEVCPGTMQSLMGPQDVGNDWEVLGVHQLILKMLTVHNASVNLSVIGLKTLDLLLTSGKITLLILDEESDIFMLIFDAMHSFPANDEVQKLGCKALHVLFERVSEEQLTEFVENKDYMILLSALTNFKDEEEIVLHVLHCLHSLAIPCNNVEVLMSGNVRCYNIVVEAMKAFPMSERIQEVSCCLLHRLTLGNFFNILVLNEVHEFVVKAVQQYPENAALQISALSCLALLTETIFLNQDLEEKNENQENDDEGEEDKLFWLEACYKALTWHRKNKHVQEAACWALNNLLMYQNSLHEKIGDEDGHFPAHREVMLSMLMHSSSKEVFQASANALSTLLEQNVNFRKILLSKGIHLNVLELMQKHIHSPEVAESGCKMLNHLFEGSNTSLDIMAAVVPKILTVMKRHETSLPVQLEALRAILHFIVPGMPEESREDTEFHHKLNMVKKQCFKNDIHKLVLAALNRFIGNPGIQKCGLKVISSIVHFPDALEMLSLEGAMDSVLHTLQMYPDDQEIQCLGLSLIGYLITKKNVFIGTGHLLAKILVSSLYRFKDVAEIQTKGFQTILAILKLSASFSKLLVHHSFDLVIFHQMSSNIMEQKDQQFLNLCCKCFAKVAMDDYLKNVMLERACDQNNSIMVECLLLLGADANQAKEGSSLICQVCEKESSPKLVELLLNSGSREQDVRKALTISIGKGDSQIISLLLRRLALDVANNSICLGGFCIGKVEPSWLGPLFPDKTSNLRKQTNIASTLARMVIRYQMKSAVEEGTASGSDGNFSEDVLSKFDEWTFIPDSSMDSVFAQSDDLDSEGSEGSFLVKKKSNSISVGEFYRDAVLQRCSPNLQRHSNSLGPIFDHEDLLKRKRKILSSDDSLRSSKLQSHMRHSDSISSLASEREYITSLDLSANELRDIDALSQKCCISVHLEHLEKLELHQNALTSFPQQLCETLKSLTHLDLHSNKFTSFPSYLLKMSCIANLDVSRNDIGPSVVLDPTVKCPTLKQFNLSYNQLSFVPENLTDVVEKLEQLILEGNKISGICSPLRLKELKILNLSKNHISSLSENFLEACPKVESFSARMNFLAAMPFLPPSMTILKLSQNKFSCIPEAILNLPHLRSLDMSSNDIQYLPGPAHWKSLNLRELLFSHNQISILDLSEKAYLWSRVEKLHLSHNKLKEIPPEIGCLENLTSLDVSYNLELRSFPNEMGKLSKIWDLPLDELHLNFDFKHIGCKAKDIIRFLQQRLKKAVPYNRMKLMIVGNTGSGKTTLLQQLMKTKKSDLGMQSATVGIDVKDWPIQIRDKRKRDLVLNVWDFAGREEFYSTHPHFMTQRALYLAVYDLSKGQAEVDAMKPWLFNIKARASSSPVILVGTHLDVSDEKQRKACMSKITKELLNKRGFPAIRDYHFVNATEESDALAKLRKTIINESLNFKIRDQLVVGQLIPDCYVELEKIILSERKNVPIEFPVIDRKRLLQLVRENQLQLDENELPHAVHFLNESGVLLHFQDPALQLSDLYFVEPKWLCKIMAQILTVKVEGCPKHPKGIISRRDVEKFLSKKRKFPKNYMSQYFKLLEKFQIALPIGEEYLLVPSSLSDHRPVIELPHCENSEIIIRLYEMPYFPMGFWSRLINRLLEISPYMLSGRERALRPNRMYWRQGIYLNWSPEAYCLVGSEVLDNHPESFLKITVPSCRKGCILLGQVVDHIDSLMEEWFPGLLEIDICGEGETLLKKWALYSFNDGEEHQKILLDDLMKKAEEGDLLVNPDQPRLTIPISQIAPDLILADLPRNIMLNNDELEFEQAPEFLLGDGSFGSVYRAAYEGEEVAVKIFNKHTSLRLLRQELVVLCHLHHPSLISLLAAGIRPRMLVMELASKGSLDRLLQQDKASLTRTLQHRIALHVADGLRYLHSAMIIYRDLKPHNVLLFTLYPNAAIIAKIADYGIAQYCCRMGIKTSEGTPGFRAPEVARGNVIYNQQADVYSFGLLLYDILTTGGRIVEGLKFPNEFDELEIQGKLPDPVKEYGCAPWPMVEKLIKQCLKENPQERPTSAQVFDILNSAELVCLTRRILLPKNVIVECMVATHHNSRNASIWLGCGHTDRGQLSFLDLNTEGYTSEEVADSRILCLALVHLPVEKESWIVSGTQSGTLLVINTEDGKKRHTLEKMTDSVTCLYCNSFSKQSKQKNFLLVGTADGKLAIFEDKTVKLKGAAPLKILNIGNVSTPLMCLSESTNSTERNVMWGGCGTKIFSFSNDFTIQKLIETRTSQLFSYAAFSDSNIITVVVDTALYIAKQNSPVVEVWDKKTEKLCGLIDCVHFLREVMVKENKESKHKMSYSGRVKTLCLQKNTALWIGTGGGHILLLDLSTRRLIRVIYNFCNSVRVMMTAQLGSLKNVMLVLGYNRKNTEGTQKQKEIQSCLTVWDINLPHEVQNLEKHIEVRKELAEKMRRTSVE
RPS6KB1, sequence (P23443 whole entry): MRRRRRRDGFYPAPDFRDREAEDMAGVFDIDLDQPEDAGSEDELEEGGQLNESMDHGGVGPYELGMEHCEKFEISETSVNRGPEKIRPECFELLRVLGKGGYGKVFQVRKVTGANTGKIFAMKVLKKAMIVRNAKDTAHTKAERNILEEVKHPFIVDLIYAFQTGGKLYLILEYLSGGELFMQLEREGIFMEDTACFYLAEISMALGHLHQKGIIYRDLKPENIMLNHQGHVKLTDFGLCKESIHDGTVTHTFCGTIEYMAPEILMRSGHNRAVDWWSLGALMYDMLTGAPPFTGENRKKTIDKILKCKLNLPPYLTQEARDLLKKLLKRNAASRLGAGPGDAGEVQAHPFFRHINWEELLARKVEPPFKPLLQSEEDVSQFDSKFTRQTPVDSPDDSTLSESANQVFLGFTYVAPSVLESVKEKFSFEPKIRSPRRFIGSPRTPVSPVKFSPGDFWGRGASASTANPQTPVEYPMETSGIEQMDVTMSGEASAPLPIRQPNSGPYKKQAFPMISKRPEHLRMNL

Compound: CN1CCN(c2ccc(Nc3ncc(C#N)c(Nc4ccccc4C(N)=O)n3)cc2)CC1.Cl [TCMDC-134116]
- IC50 [1]: 188 nM
- IC50 (BMX): 620 nM
- IC50 (PIK3C3): 1100 nM
- IC50 (PRKACA): 1500 nM
- IC50 (STK38L): 600 nM
- IC50 (MAPKAPK3): > 20 µM
- IC50 (KIT): 1300 nM
- IC50 (ABL1): 130 nM

Compound: Cl.NCC1(c2nc(-c3ccc(Cl)c(O)c3)c(-c3ccncc3)[nH]2)CCCCC1 [TCMDC-141154]
- IC50 (TNK2): > 20 µM
- abundance relative to vehicle TMT126 (TNK2; TNK2, K-562 extract, conc. series 20.0, 4.0, 0.8, 0.16, 0.032, 0.0uM, channel assignment not given): 0.90
- abundance relative to vehicle TMT127L (TNK2; [4]): 1.02
- abundance relative to vehicle TMT128H (TNK2; [4]): 1.06
- abundance relative to vehicle TMT129L (TNK2; [4]): 1.03
- abundance relative to vehicle TMT130H (TNK2; [4]): 1.20
- Hill (TNK2; TNK2, kinobead competition curve): 1
- IC50 (AAK1): > 20 µM
- abundance relative to vehicle TMT126 (AAK1; AAK1, K-562 extract, conc. series 20.0, 4.0, 0.8, 0.16, 0.032, 0.0uM, channel assignment not given): 0.86
- abundance relative to vehicle TMT127L (AAK1; [5]): 0.83
- abundance relative to vehicle TMT128H (AAK1; [5]): 0.89
- abundance relative to vehicle TMT129L (AAK1; [5]): 1.02
- abundance relative to vehicle TMT130H (AAK1; [5]): 1.01
- Hill (AAK1; AAK1, kinobead competition curve): 0.56
- PCT_INHIB_3D7_PFLDH (3D7 PFLDH [2]): 0
- PCT_INHB_DD2 (DD2): 98
- IC50 (LRRK2): > 20 µM
- IC50 (HIPK1): > 20 µM
- IC50 (HIPK2): > 20 µM
- IC50 (ILK): > 20 µM
- IC50 (PLK1): > 20 µM

Compound: CN(C)CC(O)COc1ccc(Nc2ncc([N+](=O)[O-])c(Nc3ccccc3O)n2)cc1.O=C(O)C(F)(F)F (centres unmarked) [TCMDC-141399]
- PCT_INHIB_3D7_PFLDH (3D7 PFLDH [3]): 0
- PCT_INHB_DD2 (P. falciparum DD2): 20
- IC50 (RPS6KB1): > 20 µM
- IC50 (TAOK1): 6.1 µM
- IC50 (PRKCI): > 20 µM
- IC50 (ARAF): > 20 µM
